Test results from PMC6713216, “Dual-target anti-Alzheimer’s disease agents with both iron ion chelating and monoamine oxidase-B inhibitory activity” (Journal of Enzyme Inhibition and Medicinal Chemistry, 2019).
Where two headings read alike, the source gives them in different places. Marks after values point to notes of the source that are not given here.

What was measured:
[1] = pKa determination by automatic spectrophotometric titration; type: physicochemical; details: DMSO:KCl (0.1 M) = 2:3 (V/V), 25 °C
Procedure: (§1) The automatic titration system used in the test consisted of an automatic titrator, a luminescence 759 s UV-Vis spectrophotometer, and a pH Meter (Mettler Toledo InLab Expert PRO/Mettler Toledo InLab Science). All instruments are controlled by a computer program.
(§2) The testing solution (2:3 DMSO/KCl (0.1 M), V/V) was maintained at 25 °C using a TP-3A temperature controller. The cuvette is mounted on a spectrophotometer. The E0 and s of the pH Meter were calibrated by three standard solutions (pH = 6.86, 9.18, 4.00). KCl solution (0.1 M) was used to maintain the ionic strength. For the Fe(III) affinity evaluation, the ratio of compounds to iron ion was kept at 1.1:1 (n/n) when Logβ1 was measured; the ratio of compounds to iron ion was kept at 5:1 (n/n) when Logβ2 and Logβ3 were tested.
The titration was performed in a 50 mm path length cuvette. 45 ml KCl (0.1 M) solution, 40 μL of saturated EDTA solution were added to the cuvette. The pH value of the solution was acidified to 2.0 with hydrochloric acid (1.5 M). Then 20 μL of test compound DMSO solution (30 μM/L) was added and stirred vigorously. By adding KOH solution (0.1 M) from the automatic buret, the pH value of the solution was increased by 0.1. […] Adding KOH solution (0.1 M) and repeated the automatic process until the specified endpoint of pH value was reached. All data were recorded internally by the Visual Basic program, and the test results are analysed by the HypSpec2014 program.

[2] = Determination of iron(III) affinity (Logβ1, Logβ2, Logβ3) by spectrophotometric titration; type: physicochemical; details: DMSO:KCl (0.1 M) = 2:3 (V/V), 25 °C
Procedure: as §1, §2
A 45 ml KCl (0.1 M) solution was added to the cuvette (50 mm) and the pH value was acidified to 2.1. Then 30 μM DMSO solution of the testing compound and 60 μL acidic solution of FeCl3 (15 mM) were added separately, and the mixture was vigorously stirred. After the absorbance value is stabilised, a certain amount of HCl solution (4 M) was added by the automatic buret to reduce the pH of the solution by 0.1. After the system was equilibrated, the spectral scan was performed once after 20 min. This protocol was repeated until the specified endpoint of the pH value was reached. All data was recorded with the internal Visual Basic program, HypSpec2014 program was utilised for the data analysis.
Similarly, 45 ml KCl (0.1 M) solution was added to the cuvette (50 mm) and the pH value was acidified to 2.1. Then 30 μM DMSO solution of the testing compound and 60 μL acidic solution of FeCl3 (15 mM) were added separately, and the mixture was vigorously stirred. After the absorbance value is stabilised, a certain amount of KOH solution (0.1 M) was added by the automatic buret to increase the pH of the solution by 0.1. After the system was equilibrated, the spectral scan was performed once after 5 min. This protocol was repeated until the specified endpoint of the pH value was reached. All data were recorded with the internal Visual Basic program, HypSpec2014 program was utilised for the data analysis[5]^,[21]^,[22].

[3] = Calculation of pFe3+ by HySS software from pKa and logβ values; type: physicochemical
Procedure: The values of pFe^3+ were calculated by HySS software according to the results of pKa1, pKa2, logβ1, logβ2, and logβ3 determined by the above methods. The basic parameters were set as follows: FeOH = –2.563, Fe(OH)2 = –6.205, Fe(OH)3 = –15.1, Fe2(OH)2 = –2.843, Fe3(OH)4 = –6.059, Fe(OH)4 = –21.883[23].

[4] = parameters: method as in ref 17 = [17]; 17 Li Z-S , Qiao R-P , Yang Z-J , et al.  . Tetrahedron Asymmetry 2006; 17 : 1056 – 61 .; details: cited from earlier work
[5] = parameters: method as in ref 17 = [17]; 17 Li Z-S , Qiao R-P , Yang Z-J , et al. One-step synthesis of novel tricyclic isomeric azidonucleosides . Tetrahedron Asymmetry 2006; 17 : 1056 – 61 .; details: cited from earlier work
[6] = Determination of iron(III) affinity (Logβ1, Logβ2, Logβ3) by spectrophotometric titration; type: physicochemical; details: measured in 0.1 M KCl solution
[7] = parameters: method as in ref 17 = [17]; 17 Li Z-S , Qiao R-P , Yang Z-J , et al. One-step synthesis of novel tricyclic isomeric azidonucleosides . Tetrahedron Asymmetry 2006; 17 : 1056 – 61 .; details: cited from earlier work; remark: listed apart in the source

Cc1c(O)c(=O)ccn1C [Deferiprone]
pKa1 [1]: 3.68
Logβ1 ([2]; compound:iron 1.1:1): 14.83
Logβ2 ([2]; compound:iron 5:1): 25.7
Logβ3 ([2]; compound:iron 5:1): 33.6
pFe3+ ([3]; DMSO:KCl (0.1 M) = 2:3 (V/V), calculated by HySS from pKa1, pKa2, logβ1-3): 17.4
pFe3+ ([3]; data measured in 0.1 M KCl solution): 20.1^b
pKa2 [4]: 9.78^c
Logβ1 [5]: 15.03^c
Logβ2 [5]: 27.42^c
Logβ3 [5]: 37.35^c
Logβ2 [6]: 27.0^b
Logβ3 [6]: 36.4^b
pFe3+ [7]: 20.7^c
